SMILES strings stand for the structures.

Assay in all cases: Bliss excess, mean over the matrix (fraction); higher = more synergy
For test [1], the system named is ETK-1 (Biliary Tract Carcinoma). An outline of the steps: (§1)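 Cell lines grown in DMEM/F12 or RPMI with 10% FBS were plated in 1536-well plates and held 24 hours at 37°C, 5% CO2 before 72 hours of exposure to two-drug dose matrices, with DMSO typically at 0.2%. CellTiter-Glo 2.0 luminescence gave viability, which was converted to inhibition. Vehicle wells were set to 0 and blank wells to 1. Combination Emax is the second-highest inhibition in the matrix, and Bliss excess is the observed combination effect minus the expected EA + EB − EA·EB, where EA and EB are the single-agent effects.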

The test system of test [2] is HCC1143 (Breast Carcinoma). The essentials:
as §1

For test [3], the system named is DOK (Oral Cavity Carcinoma). The essentials: as §1
Test [4] has as its system RCC10RGB (Kidney Carcinoma). An outline of the steps: as §1
Test [5] relates to MEG-01 (Chronic Myelogenous Leukemia). An outline of the steps:
as §1

Another test has as its system HCC38 (Breast Carcinoma). The essentials:
as §1

Test [6] deals with NCI-H1688 (Small Cell Lung Carcinoma). An outline of the steps: as §1
In test [7] the test system is SNG-M (Endometrial Carcinoma). The essentials: as §1
For test [8], the system named is P31-FUJ (Acute Myeloid Leukemia). An outline of the steps: as §1
For test [9], the system named is CAL-39 (Other Solid Carcinomas). An outline of the steps: as §1
Test [10] has as its system D-283MED (Other Solid Carcinomas). The essentials: as §1
The subject of another test is CS1 (Chondrosarcoma). An outline of the steps: as §1
For a further test, the system named is MCF7 (Breast Carcinoma). An outline of the steps: as §1
Test [11] relates to GDM-1 (Acute Myeloid Leukemia). An outline of the steps: as §1
A further test concerns Saos-2 (Osteosarcoma). An outline of the steps:
as §1

Test [12] relates to HLE (Hepatocellular Carcinoma). The essentials:
as §1

For test [13], the system named is HOP-92 (Non-Small Cell Lung Carcinoma). An outline of the steps: as §1
The test system of a further test is SK-MEL-1 (Melanoma). The essentials: as §1
Test [14] has as its system HCC-827 (Lung Adenocarcinoma). The essentials:
as §1

In test [15] the test system is SK-UT-1 (Other Solid Carcinomas). An outline of the steps:
as §1

As for `Cc1nc(Nc2ncc(C(=O)Nc3c(C)cccc3Cl)s2)cc(N2CCN(CCO)CC2)n1` [Dasatinib] + CC(=O)Nc1cccc(-n2c(=O)n(C3CC3)c(=O)c3c(Nc4ccc(I)cc4F)n(C)c(=O)c(C)c32)c1 [Trametinib] (first compound max 2 µM, 7x7, partner max 1 µM), the Bliss excess was 0.0226 in [1]; 0.0293 in test [2]; 0.0288 in test [3]; -0.0719 in [4]; 0.0019 in [5]; -0.0277 in the test with HCC38 (Breast Carcinoma). In addition, the Bliss excess was -0.0122 in test [6]; -0.0097 in test [7]; 0.108 in test [8]; 0.0171 in test [9]; -0.0475 in [10]; -0.022 in the test on CS1 (Chondrosarcoma). Further, the Bliss excess with MCF7 (Breast Carcinoma) is -0.0601; in [11], -0.102; in the test on Saos-2 (Osteosarcoma), 0.0164; in test [12] it was 0.0283; in [13] it was 0.113; with SK-MEL-1 (Melanoma), -0.0852. The Bliss excess in test [14] was -0.0114; in test [15] it was -0.0255.

With `COc1cccc2c1C(=O)c1c(O)c3c(c(O)c1C2=O)C[C@@](O)(C(=O)CO)C[C@@H]3O[C@H]1C[C@H](N)[C@H](O)[C@H](C)O1` [Doxorubicin] + Cc1cc2ncnn2cc1Nc1ncc2c(n1)n(C1CCOCC1)c(=O)n2C [AZD7648] (first compound max 1 µM, 7x7, partner max 10 µM), the Bliss excess is 0.0878 in test [1]; 0.0202 in [2]; 0.0485 in test [3]; -0.0449 in test [4]; 0.0698 in [5]; 0.0206 in the test with HCC38 (Breast Carcinoma). For the same compound, the Bliss excess in test [6] was found to be 0.0172; in test [7], 0.0194; in [8] it was 0.108; in [9] it was 0.0233; in test [10] it was 0.0461; in the test with CS1 (Chondrosarcoma) it was 0.0851. Also, the Bliss excess worked out at 0.058 with MCF7 (Breast Carcinoma); 0.112 in [11]; 0.0415 in the test on Saos-2 (Osteosarcoma); 0.0309 in test [12]; 0.0271 in test [13]; 0.0138 in the test on SK-MEL-1 (Melanoma). In addition, the figures for the Bliss excess in test [14] and in test [15] were 0.0178 and 0.093, respectively.

In the case of `Cc1c2c(nn1C)CSCc1cc(n(C)n1)CSc1cc(c3ccccc3c1)OCCCc1c(C(=O)O)n(C)c3c-2c(Cl)ccc13` [AZD5991] + CN(C)CCCOc1ccc(-c2ccc3ncc4c(c3c2)n(C2CCOCC2)c(=O)n4C)cn1 [AZD0156] (first compound max 1 µM, 7x7, partner max 1 µM), the Bliss excess was -0.0503 in [1]; -0.0287 in test [2]; -0.0121 in test [3]; -0.0619 in test [4]; -0.007 in test [5]; -0.0182 with HCC38 (Breast Carcinoma). Moreover, the Bliss excess is -0.0098 in [6]; 0.01 in test [7]; 0.0014 in test [8]; -0.0786 in test [9]; 0.0096 in test [10]; 0.0158 in the test on CS1 (Chondrosarcoma). Further, the Bliss excess in the test on MCF7 (Breast Carcinoma) was -0.0063; in test [11], 0.0079; with Saos-2 (Osteosarcoma) it was -0.0158; in test [12], 0.0424; in [13], -0.044; with SK-MEL-1 (Melanoma), -0.0322. The figures for the Bliss excess in [14] and in test [15] were 0.011 and -0.0195, respectively.

The values above are taken from the supplement of paper PMC11061612.
